Laboratory results reported in PMC6844379, “Design, synthesis, in vitro inhibition and toxicological evaluation of human carbonic anhydrases I, II and IX inhibitors in 5-nitroimidazole series” (Journal of Enzyme Inhibition and Medicinal Chemistry, 2019).

Biological target: T1, hCA I (Homo sapiens, UniProt P00915)
T1 construct: gene CA1; recombinant, obtained in house as reported earlier; cytosolic isoform
Experiment: stopped-flow CO2 hydrase assay
Format: biochemical
Conditions: […] Hepes pH […] Na2SO4, CO2 […], […] min pre-incubation at room temperature

T1 sequence (P00915 2-261): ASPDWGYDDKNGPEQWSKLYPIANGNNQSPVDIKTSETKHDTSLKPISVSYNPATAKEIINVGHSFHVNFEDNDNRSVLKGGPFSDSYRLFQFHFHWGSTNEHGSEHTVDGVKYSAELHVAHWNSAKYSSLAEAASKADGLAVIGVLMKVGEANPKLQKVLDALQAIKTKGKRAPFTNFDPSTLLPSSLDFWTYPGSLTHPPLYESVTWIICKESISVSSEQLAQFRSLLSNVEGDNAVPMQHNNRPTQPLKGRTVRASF

SMILES: Cc1ncc([N+](=O)[O-])n1CCS(N)(=O)=O [compound 10, 2-(2-Methyl-5-nitro-1H-imidazol-1-yl)ethane-1-sulphonamide]
- Ki: 6430 nM
